| SMILES | melting point [°C] |
| --- | --- |
| COC(=O)c1cc(C(C)=O)c(OCc2ccccc2)cc1OCc1ccccc1 | 114 to 115 |
| Cc1cc(C(=O)NCCc2ccccc2)n(C)n1 | 90.5 to 91.5 |
| CCOC(=O)c1cnc2sc3c(c2c1O)CCCC3 | 138 to 140 |
| IC#CCOc1ccncc1 | 140 to 141 |
| CC1C=C2CCCCCCCCCC=C2C1 (stereo not given) | 98 to 103 |
| CC(Cc1ccccc1)(C(=NC#N)NCc1ccco1)c1ccccn1 (stereo not given) | 152 to 154 |
| COC(=O)c1[nH]c(C)c(C)c1OCCCCl | 117 to 120 |
| COc1cc2c(c3ccccc13)Nc1ccccc1S2 | 168 to 170 |
| CCC(C)NCc1nc(-c2ccc(OC)c(OC)c2)c2cc(OC)c(OC)cc2n1 (stereo not given) | 118 to 120 |
| O=C(O)C(Cc1nnn[nH]1)NC(=O)C(CS)C(F)(F)F (stereo not given) | 158 to 161 |
| CC(C)(C)OC(=O)N1CCc2snc(O)c2C1 | 174 to 177 |
| Cc1[nH]c(=O)c(C#N)cc1-c1ccccc1 | 280 to 290 |
| Cc1n[nH]c(C)c1-c1ccc(OC2SCC(O)C(O)C2O)cn1 (stereo not given) | 210 |
| O=[N+]([O-])c1cc(F)c(-c2ccc(C(F)(F)F)cc2)cc1F | 113 to 114 |
| NC(=O)c1nc(-c2cccc(O)c2)nc2c1[nH]c(=O)n2-c1ccccc1C1CCCCC1 | > 270 |
| COc1cc(N2CCOCC2)ccc1Nc1nc(Nc2ccc3c(c2)CCCC(=O)N3C(C)C)ncc1Cl | 153 to 154 |
| COC(=O)C1=C(OC)c2ccccc2S(=O)(=O)N1C | 79 to 80 |
| COc1ccc2sc(C34CC5CC(CC(C5)C3)C4)cc(=O)c2c1 | 140 |
| OC(Cn1c(-c2ccc(Cl)cc2)nc2cccnc21)c1ccccc1 (stereo not given) | 166 to 168 |
| Cc1ccc(-c2ncc(N(C)CCCCO)nc2-c2ccc(C)cc2)cc1 | 94 to 96 |
| CC(C)c1ccc(S(=O)(=O)n2c(CCC(=O)O)cc3cc(Cl)ccc32)cc1 | 150 to 154 |
| Cc1scc2c1C(=O)Nc1ccccc1N2C(=O)Cl | 235 to 236 |
| Cc1cccc(-c2nc(NC(=O)c3cccnc3)sc2-c2ccnc(NCc3ccccc3)c2)c1 | 220 to 222 |
| N#Cc1ncccc1CCc1ccc(F)cc1 | 48 to 49 |
| O=c1oc(=O)n(Cc2ccc(F)cc2)c2ccc(F)cc12 | 107 |

| SMILES | melting point [°C] |
| --- | --- |
| O=C(CC1CCNCC1)Nc1cccc(-c2ccnc3c(C(=O)c4cccs4)cnn23)c1 | 216 to 220 |
| O=C(O)CCCC1C(=O)Nc2ccccc21 (stereo not given) | 79 to 80 |
| CC(C)N(C(=O)n1oc(=O)[nH]c1=O)c1ccccc1 | 116 to 117 |
| COc1ccc2[nH]c3c(c2c1)C1C(=O)OC(=O)C1C(c1ccccc1Cl)C3 (stereo not given) | 189 to 191 |
| CS(=O)(=O)N1CCN([C@@H](CNC(=O)c2ccc(OCc3ccc(C(F)(F)F)cc3)cc2)C(=O)NO)CC1 | 192 |
| COC1(C[N+](=O)[O-])OC(=O)c2cc(C)c(C)cc21 (stereo not given) | 147 to 150 |
| CNc1ccc(C2OC(C)(C)N=C2c2ccccc2)cc1 (stereo not given) | 138 to 139 |
| CCOC(=O)C=Cc1ccc(Oc2nsnc(Cl)c2=O)cc1 | 126 to 128 |
| CCCCSc1nc(N)c(C#N)s1 | 115 to 117 |
| CC12CCC3C(CCC4CC(=O)CCC43C)C1CCC2C#N (stereo not given) | 150 to 152 |
| CCOC(=O)CCc1ccc(OCc2ccc(OCc3nc(-c4ccccc4)oc3C)cc2)cc1 | 105 to 106 |
| CCCCCCCNC(=O)Nc1ccccc1C(=O)NC1CCCNC1 (stereo not given) | 165 |
| O=C1OCCC1N[C@@H](Cc1ccccc1)C(=O)OCc1ccccc1 (stereo not given in full) | 46 to 47 |
| Cn1cccc(Cc2cc3cccc(-c4cccc(C(=O)NCCO)c4)c3s2)c1=O | 173 to 174 |
| O=C(O)CCCc1cccc(CNC(=O)C2Cc3ccccc3N2S(=O)(=O)c2ccc(-c3cccc(C(F)(F)F)c3)cc2)c1 (stereo not given) | 76 |
| c1cc(-c2cn([C@H]3CN4CCC3CC4)nn2)ccn1 | 150 |
| CNC(=O)c1cccc(NC(=O)CC2CCCCC2)c1 | 183 |
| Cc1scc2c1N(C(=O)NCCN1CCC(CCCCN3CCCCC3)CC1)c1ccccc1NC2=O | 186 to 187 |
| CCOC(=O)Cc1nc(-c2ccc(Cl)cc2)oc1Sc1ccccc1 | 109 to 110 |
| CCN(CC)OC(=O)c1cc(C(C)(C)C)c(O)c(C(C)(C)C)c1 | 129 to 137 |
| O=C(O)CC1(O)CC(CCCCCCc2ccc(Cl)cc2Cl)OC1=O (stereo not given) | 77 to 79 |
| COC(=O)c1ccccc1-c1cc(-c2ccc(OC)cc2)on1 | 96.5 to 98 |
| Cc1ccc(C=CC(=O)NNC(=O)C=Cc2ccc(C)cc2)cc1 | 307 |
| COC(=O)C1=C(O)c2sc(C(F)(F)F)cc2S(=O)(=O)N1C | 178 to 180 |
| O=c1cc(-c2c(F)cccc2F)[nH]c(=O)n1-c1ccc(Cl)c(Cl)c1 | 256 |

| SMILES | melting point [°C] |
| --- | --- |
| CCc1nn(CCNS(=O)(=O)c2cn(C)cn2)c(CC)c1Cc1cc(Cl)cc(Cl)c1 | 172 to 174 |
| CCOC(=O)c1c(Nc2ccc(Cl)cc2C)n[nH]c1C | 156 to 187 |
| COc1ccc(S(=O)(=O)Nc2c(C)cc(C#N)cc2C(=O)O)cc1 | 175 |
| CCSCCNC(=O)Nc1ccccc1CCc1cc(C(C)(C)C)c(O)c(C(C)(C)C)c1 | 131 to 132 |
| CCOC(Nc1ccccc1)(OCC)c1cc(C(=O)c2ccc(Cl)cc2)nc(C)c1Cl | 156 to 157 |
| Cc1noc(NS(=O)(=O)c2ccsc2NC(=O)Nc2sccc2S(=O)(=O)Nc2onc(C)c2C)c1C | 112 to 114 |
| CCCC(=O)NCCc1cccc2ccc(SC)cc12 | 55 to 57 |
| CS(=O)(=O)C(S(C)(=O)=O)S(=O)(=O)O | > 300 |
| C[C@H](C(=O)O)n1nc(O)c2[nH]c3cc(Cl)ccc3c(=O)c2c1=O | > 275 |
| CC(C)COc1ccccc1-c1ccc(C(N)=O)c(=O)[nH]1 | 180 |
| CC1CC1C(=O)Nc1ccc(-n2nc(C(F)(F)F)cc2C(F)(F)F)cc1 (stereo not given) | 172 to 173 |
| CCCCC(CC)CN(CCC)c1ccc(C2=C(C#N)C(=C(C#N)C#N)NC2=O)cc1 (stereo not given) | 189 |
| CC1=CCC(O)(C(C)(C)Sc2ccccc2)CC1 (stereo not given) | 73 to 74 |
| CS(=O)(=O)OCCc1ccc(-c2cccnc2)cc1 | 66 to 68 |
| CCOC(=O)[C@H](NS(=O)(=O)c1ccc(C)cc1)[C@@H]1CO[C@@H](c2ccccc2)C1 | 97 to 99 |
| CC1(C)OC(=O)Nc2ccc(OCCCCS(=O)c3ccc(Cl)c(Cl)c3)cc21 (stereo not given) | 138 to 139 |
| CCC1(c2cn(Cc3ccc(Cl)cc3)cn2)Cc2ccccc2C1=O (stereo not given) | 150 to 154 |
| O=C(c1cc(-c2ccc(Cl)cc2)c(N2CCOCC2)s1)c1ccc(Cl)cc1Cl | 110 |
| Cn1c(=O)nc(-c2ccccc2)c2ccsc21 | 256 to 258 |
| Cc1cc2c(s1)Nc1ccccc1N=C2N1CCN(C)[C@@H](CCc2ccccc2)C1 | 87 to 91 |
| CC1(CO)C(O)CCC2(C)C1CCC1CC3CC12CCC3(O)CO (stereo not given) | 290 to 300 |
| O=C(OI(OC(=O)C(F)(F)F)C(F)(F)C(F)(F)C(F)(F)C(F)(F)C(F)(F)C(F)(F)C(F)(F)C(F)(F)F)C(F)(F)F | 70 to 74 |
| O=C(O)c1cc(Cl)ccc1SSc1ccc(Cl)cc1C(=O)O | 320 to 324 |
| CCOC(=O)CCCCNc1ccc2c(c1)CCC2 | 61 to 63 |
| Cc1nc2c(c3c1[nH]c1ccccc13)C(=O)CC(C)C2 (stereo not given) | 218 to 219 |

| SMILES | melting point [°C] |
| --- | --- |
| CCc1cccc(-c2[nH]c(C(C)C)nc2-c2cccc(-c3ccc(S(C)(=O)=O)cc3)c2)n1 | 108 to 110 |
| CC(C)[C@](C)(O)C(=O)O | 47 to 49 |
| C=CCn1c(=O)c2cc(C(=O)O)cn2c2ccccc21 | 306 to 308 |
| CCCC#Cc1cc(Cl)cc2c1OC(C(F)(F)F)C(C(=O)O)=C2 (stereo not given) | 168 to 171 |
| Cc1cc(N2CCN(CC3CC3)C2=O)sc1C(=O)NCc1cccnc1 | 157 to 159 |
| COc1cc2c(cc1OCc1ccccc1)C(C#N)(Sc1ccccc1)C2 (stereo not given) | 109 to 110 |
| COc1cccc2c1OC(CN1CC=C(c3c[nH]c4ccc(C#N)cc34)CC1)CO2 (stereo not given) | 235 to 238 |
| Nc1nc(N)nc(N(c2ccc(OCOc3ccc(N(c4nc(N)nc(N)n4)c4nc(N)nc(N)n4)cc3)cc2)c2nc(N)nc(N)n2)n1 | > 300 |
| N#Cc1ccc2c(c1)C=C(C(=O)O)C(C(F)(F)F)N2 (stereo not given) | 238 to 240 |
| CC(Cl)C(=O)Nc1nc(-c2ccccc2)cs1 (stereo not given) | 98 to 99 |
| COC(=O)C(Cc1ccc(O)cc1)c1cc2cc(C#N)ccc2o1 (stereo not given) | 110 to 111 |
| O=C(CCc1c[nH]c2ccccc12)NCC1CNc2ccccc2O1 (stereo not given) | 145 to 146 |
| CCC1C(=O)c2cc(OCC(=O)O)c(C)c(C)c2C1=O (stereo not given) | 187 to 193 |
| COc1cc(C(=O)NS(=O)(=O)c2ccccc2C)ccc1Cc1cn(C)c2ccc(CCNC(=O)N(C)C)cc12 | 124 to 131 |
| CCCc1c2c(c3oc(C(=O)O)cc(=O)c3c1O)CCCC2 | 226 to 227 |
| O=C1NC(=O)c2cc(C(c3ccc4c(c3)C(=O)NC4=O)(C(F)(F)F)C(F)(F)F)ccc21 | 322 |
| Nc1ccc(Sc2cnc3cc(Cl)ccc3n2)cc1 | 144 to 147 |
| CC(C)(C)c1ccc(-n2c(CC(=O)O)c(C(=O)O)c3cc(Oc4ccc(C(=O)O)cn4)c(Cl)cc32)cc1 | 223 to 235 |
| CC(=O)Nc1ccc(-c2cc(C(=O)c3cc(-c4ccc(NC(C)=O)cc4)c(N4CCOCC4)s3)sc2N2CCOCC2)cc1 | 140 to 142 |
| O=C(CBr)C(O)(c1ccccc1)C1CCC1 (stereo not given) | 79 to 80 |
| Cc1nc2ccc(C(=O)NS(=O)(=O)c3ccccc3)nc2n1Cc1ccc(CCc2ccccc2)cc1Cl | 180 to 181 |
| Cc1[nH]nc(CN2CCN(Cc3c[nH]c4ncccc34)CC2)c1-c1ccccc1 | 154 to 156 |
| FC(F)(F)c1cc(Cl)c(-n2cc(C3CC3(Br)Br)nn2)c(Cl)c1 (stereo not given) | 156 to 158 |
| CC(C)(C)NC(=O)c1ccc(N2CCN(c3ccncc3)CC2)cc1 | 214 to 217 |
| CCc1c(C(=O)C(N)=O)c2c(OCC(=O)OC)cc3c(c2n1Cc1ccccc1)CCCC3 | 51 to 53 |

Source: a melting point compilation (Tetko et al.; mined from patent text by program, amines drawn as free bases though some values may be those of a salt)
